Results reported in patent US20050272692A1, “Sucrose ester compounds useful as fungicides” (priority 2004, published 2005).
Read-outs that look alike come from different tables or passages of the source.

What was measured:
Stachybotrys = details: 1000 ppm, lab trial
Rhizopus = details: 1000 ppm, lab trial
Penicillium = details: lab trial
Stachybotrys chartarum [1] = details: for growth during incubation period: 144 hour incubation, all concentrations; for growth: all concentrations (400 to 2000 ppm), malt extract agar, 25° C.
Penicillium chrysogenum = details: low concentrations, malt extract agar, 25° C., 144 hours
Description: (§1) For each fungus tests were conducted on malt extract agar that was amended with five concentrations of sucrose octanoate. The control medium was standard malt extract agar. The concentrations were prepared based on 100% active ingredient. The parts per million were calculated afterwards to account for a concentration of 40% active ingredient. All fungi in the tests were incubated at 25° C. for 144 hours.
(§2) For each fungi tests were conducted on malt extract agar that was amended with five concentrations of sorbitol octanoate. The control medium was standard malt extract agar. The concentrations were prepared based on 100% active ingredient. The parts per million were calculated afterwards to account for a concentration of 40% active ingredient. All fungi in the tests were incubated at 25° C. for 144 hours.

Aspergillus flavus = details: for growth: all concentrations, malt extract agar, 25° C., 144 hours
Description: as §1, §2

Aspergillus parasiticus = details: for growth: all concentrations, malt extract agar, 25° C., 144 hours
Description: as §1, §2

three different fungi = details: 2000 ppm, lab trial
Rhizopus stolonifer = details: for growth during incubation period: 144 hour incubation
Description: as §1, §2

Stachybotrys chartarum [2] = system: Stachybotrys chartarum
[3] = 2000 ppm, d.f=2, p<0.05, unpaired one-tailed T-tests

sorbitol octanoate
growth of fungus (Stachybotrys): prevented the growth
growth of fungus (Rhizopus): prevented the growth
growth of fungus (Penicillium; 2000 ppm): some growth
growth during incubation period (Stachybotrys chartarum [1]): No growth
growth (Stachybotrys chartarum [1]): inhibited
growth (Penicillium chrysogenum): able to grow, although slowly compared to the control
growth (Aspergillus flavus): able to grow
growth (Aspergillus parasiticus): able to grow

sucrose octanoate
growth of fungi (three different fungi): prevented the growth
growth of fungus (Stachybotrys): prevented the growth
growth of fungus (Rhizopus): prevented the growth
growth of fungus (Penicillium; 1000 ppm): some growth
growth during incubation period (Rhizopus stolonifer; all concentrations tested): no growth
growth during incubation period (Rhizopus stolonifer; all concentrations with the exception of 400 ppm level): no growth
growth (Rhizopus stolonifer; all concentrations tested (400 to 2000 ppm), malt extract agar, 25° C.): inhibited
growth during incubation period (Stachybotrys chartarum [1]): No growth
growth (Stachybotrys chartarum [1]): inhibited
growth (Penicillium chrysogenum): able to grow, although slowly compared to the control
growth compared with control plates (Aspergillus flavus; [3]): significantly less
growth (Aspergillus flavus): able to grow
growth compared with control plates (Aspergillus parasiticus; [3]): significantly less
growth (Aspergillus parasiticus): able to grow

Zinc Mono-Sucrose Succinate [Compound A]
reduction of radial growth (Pythium ultimum; 1000 ppm): 92.3%
radial growth diameter (Pythium ultimum; 1000 ppm, control 85 mm): 6.6 mm
growth (Pythium ultimum; 5000 ppm): no significant level of growth
reduction of radial growth (Rhizoctonia solani; 1000 ppm): 75.4%
radial growth diameter (Rhizoctonia solani; 1000 ppm, control 62.3 mm): 15.3 mm
growth measurement (Rhizoctonia solani; 5000 ppm, very limited growth): 10 mm
reduction of radial growth (Fusarium graminearum; 1000 ppm): 73%
radial growth diameter (Fusarium graminearum; 1000 ppm, control 67.6 mm): 18.3 mm
inhibition (Fusarium graminearum; 5000 ppm): no additional inhibition over the 1000-ppm assay
reduction of radial growth (Alternaria sp; 1000 ppm): 64.9%
radial growth diameter (Alternaria sp; 1000 ppm, control 28.5 mm): 10 mm
growth (Alternaria sp; 5000 ppm): no significant level of growth
reduction of radial growth (Mucor sp; 1000 ppm): 74.4%
radial growth diameter (Mucor sp; 1000 ppm, control 66.5 mm): 17 mm
growth (Mucor sp; 5000 ppm): no significant level of growth
reduction of radial growth (Stachybotrys chartarum [2]; 1000 ppm): 66.0%
sporulation (Stachybotrys chartarum [2]; 1000 ppm medium, high levels on control medium): reduced to low levels
radial growth diameter (Stachybotrys chartarum [2]; 1000 ppm, control medium 19.7 mm): 6.7 mm
growth measurement (Stachybotrys chartarum [2]; 5000 ppm, very limited growth): 2.7 mm
reduction of radial growth (Aspergillus niger; 1000 ppm): 65.6%
sporulation (Aspergillus niger; 1000 ppm medium, also high on control medium): high
radial growth diameter (Aspergillus niger; 1000 ppm, control medium 63.0 mm): 21.7 mm
growth (Aspergillus niger; 5000 ppm): no significant level of growth
